Measurements as given in US9376436B2, “2-(pyridin-2yl)-1, 7-diaza-spiro [4.4] nonane-6-one compound as voltage-gated sodium channels modulators” (CONVERGENCE PHARMACEUTICALS LIMITED, priority 2011, dated 2016).
Structures can show the parent of a compound that is named as a salt. Where two headings read alike, the source gives them in different places.

Biological target: T1, hNaV1.7 (Homo sapiens, UniProt Q15858)
T1 construct: expressed in transfected cells; host or cells: HEK293
Experiment: QPatch NaV1.7 assay (whole-cell patch clamp, QPatch16x)
Type: cell-based
Details: HEK293-hNaV1.7 cells
Procedure, shortened: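 HEK293 cells expressing hNaV1.7 recorded by automated whole-cell patch clamp (CsF internal, pH 7.3). Peak currents from 20 ms steps to 0 mV measured at holding potentials of −90 mV and V1/2 SSI; four-point cumulative concentrations, 120 s each, Hill fits gave pIC50 at each potential.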

[1] = holding voltage V1/2 SSI (half of channels inactivated), read-out: QP Nav1.7 SSI vhalf pIC50 (converted)
[2] = holding voltage −90 mV (most channels closed), read-out: QP Nav1.7 −90 mV pIC50 (converted)

T1 sequence (Q15858 whole entry): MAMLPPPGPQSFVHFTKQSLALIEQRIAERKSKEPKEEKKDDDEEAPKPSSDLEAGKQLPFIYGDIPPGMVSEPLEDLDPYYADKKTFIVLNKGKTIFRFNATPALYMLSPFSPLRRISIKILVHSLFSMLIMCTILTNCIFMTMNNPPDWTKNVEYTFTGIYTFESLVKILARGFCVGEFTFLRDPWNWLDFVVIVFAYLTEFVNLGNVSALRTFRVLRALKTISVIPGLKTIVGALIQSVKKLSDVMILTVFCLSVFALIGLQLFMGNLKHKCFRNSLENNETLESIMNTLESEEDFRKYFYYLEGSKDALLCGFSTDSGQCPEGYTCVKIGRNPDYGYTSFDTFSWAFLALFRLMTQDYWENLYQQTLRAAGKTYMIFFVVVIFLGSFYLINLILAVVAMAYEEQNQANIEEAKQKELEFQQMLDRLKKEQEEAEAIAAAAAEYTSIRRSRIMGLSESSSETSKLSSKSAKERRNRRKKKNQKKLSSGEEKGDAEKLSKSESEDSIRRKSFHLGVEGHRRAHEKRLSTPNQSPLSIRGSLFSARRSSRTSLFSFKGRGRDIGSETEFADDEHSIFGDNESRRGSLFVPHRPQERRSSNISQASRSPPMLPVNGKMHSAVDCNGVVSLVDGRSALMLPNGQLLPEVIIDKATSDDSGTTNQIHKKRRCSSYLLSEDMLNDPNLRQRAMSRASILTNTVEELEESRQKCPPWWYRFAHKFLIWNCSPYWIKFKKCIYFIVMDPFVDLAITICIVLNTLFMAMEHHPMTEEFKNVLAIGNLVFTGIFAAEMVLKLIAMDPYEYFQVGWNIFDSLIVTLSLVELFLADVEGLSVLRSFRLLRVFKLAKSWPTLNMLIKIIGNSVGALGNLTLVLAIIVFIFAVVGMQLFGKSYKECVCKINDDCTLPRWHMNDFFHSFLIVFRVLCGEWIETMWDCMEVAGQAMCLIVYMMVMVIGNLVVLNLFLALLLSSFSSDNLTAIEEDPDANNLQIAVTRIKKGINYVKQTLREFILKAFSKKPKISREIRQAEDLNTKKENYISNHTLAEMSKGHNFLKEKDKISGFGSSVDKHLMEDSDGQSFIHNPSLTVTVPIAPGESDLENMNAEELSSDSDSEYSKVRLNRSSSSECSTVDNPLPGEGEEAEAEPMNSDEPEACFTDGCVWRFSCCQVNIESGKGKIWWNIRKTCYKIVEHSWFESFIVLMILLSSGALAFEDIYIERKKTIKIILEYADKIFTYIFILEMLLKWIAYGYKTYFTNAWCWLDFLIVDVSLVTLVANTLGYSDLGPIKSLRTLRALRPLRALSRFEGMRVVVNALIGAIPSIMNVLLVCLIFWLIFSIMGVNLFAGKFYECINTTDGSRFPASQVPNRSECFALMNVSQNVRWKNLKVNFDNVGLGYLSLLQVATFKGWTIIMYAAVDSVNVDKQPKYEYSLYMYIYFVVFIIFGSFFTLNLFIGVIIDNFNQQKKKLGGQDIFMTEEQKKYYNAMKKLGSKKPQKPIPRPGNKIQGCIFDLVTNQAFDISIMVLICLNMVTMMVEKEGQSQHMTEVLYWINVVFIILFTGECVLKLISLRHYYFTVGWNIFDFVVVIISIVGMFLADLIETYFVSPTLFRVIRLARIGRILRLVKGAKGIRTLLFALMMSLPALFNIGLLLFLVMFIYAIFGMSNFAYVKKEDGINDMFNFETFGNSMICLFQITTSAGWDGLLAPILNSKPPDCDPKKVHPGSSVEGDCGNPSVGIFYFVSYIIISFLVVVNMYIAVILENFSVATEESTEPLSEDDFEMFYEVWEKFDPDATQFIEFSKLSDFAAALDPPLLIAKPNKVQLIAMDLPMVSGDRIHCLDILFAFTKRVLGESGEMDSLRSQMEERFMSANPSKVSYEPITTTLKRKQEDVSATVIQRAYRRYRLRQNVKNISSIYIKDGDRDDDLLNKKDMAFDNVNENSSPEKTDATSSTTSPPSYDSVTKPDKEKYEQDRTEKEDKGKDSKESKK

Structure (SMILES) | IC50 [1] [µM] | IC50 [2] [µM]
CCCOc1ccc(F)c(-c2cc(C)nc([C@@H]3CC[C@]4(CCN(C)C4=O)N3)c2)c1 [Example 201, (2S,5R)-2-[4-(2-Fluoro-5-propoxy-phenyl)-6-methyl-2-pyridyl]-7-methyl-1,7-diazaspiro[4.4]nonan-6-one hydrochloride] | 0.126 | 5.01
CCOc1cc(-c2cc(C)nc([C@H]3CC[C@@]4(CCN(C)C4=O)N3)c2)c(F)cc1C [Example 202, (2R,5S)-2-[4-(5-Ethoxy-2-fluoro-4-methyl-phenyl)-6-methyl-2-pyridyl]-7-methyl-1,7-diazaspiro[4.4]nonan-6-one hydrochloride] | 3.16 | 31.6
Cc1cc(-c2cc(N3CCCC3=O)ccc2F)cc([C@H]2CC[C@@]3(CCN(C)C3=O)N2)n1 [Example 203, (2R,5S)-2-[4-[2-Fluoro-5-(2-oxopyrrolidin-1-yl)phenyl]-6-methyl-2-pyridyl]-7-methyl-1,7-diazaspiro[4.4]nonan-6-one hydrochloride] | 251 | 2000
CCc1ccc(F)c(-c2cc(C)nc([C@H]3CC[C@@]4(CCN(C)C4=O)N3)c2)c1 [Example 204, (2R,5S)-2-[4-(5-Ethyl-2-fluoro-phenyl)-6-methyl-2-pyridyl]-7-methyl-1,7-diazaspiro[4.4]nonan-6-one hydrochloride] | 5.01 | 31.6
CCc1cccc(-c2cc(C)nc([C@H]3CC[C@@]4(CCN(C)C4=O)N3)c2)c1 [Example 205, (2R,5S)-2-[4-(3-Ethylphenyl)-6-methyl-2-pyridyl]-7-methyl-1,7-diazaspiro[4.4]nonan-6-one hydrochloride] | 6.31 | 63.1
CCc1cccc(-c2cc(C)nc([C@H]3CC[C@@]4(CCN(C)C4=O)N3)c2)c1F [Example 206, (2R,5S)-2-[4-(3-Ethyl-2-fluoro-phenyl)-6-methyl-2-pyridyl]-7-methyl-1,7-diazaspiro[4.4]nonan-6-one hydrochloride] | 10 | 63.1
CCOc1cccc(-c2cc(C)nc([C@H]3CC[C@@]4(CCN(C)C4=O)N3)c2)c1 [Example 207, (2R,5S)-2-[4-(3-Ethoxyphenyl)-6-methyl-2-pyridyl]-7-methyl-1,7-diazaspiro[4.4]nonan-6-one hydrochloride] | 6.31 | 79.4
Cc1cc(-c2cc3c(cc2F)CCO3)cc([C@@H]2CC[C@]3(CCN(C)C3=O)N2)n1 [Example 208, (2S,5R)-2-[4-(5-Fluoro-2,3-dihydrobenzofuran-6-yl)-6-methyl-2-pyridyl]-7-methyl-1,7-diazaspiro[4.4]nonan-6-one hydrochloride] | 100 | 158
Cc1cc(-c2ccc(OC(C)C)nc2)cc([C@@H]2CC[C@]3(CCN(C)C3=O)N2)n1 [Example 209, (2S,5R)-2-[4-(6-Isopropoxy-3-pyridyl)-6-methyl-2-pyridyl]-7-methyl-1,7-diazaspiro[4.4]nonan-6-one hydrochloride] | 3.16 | 25.1
CCS(=O)(=O)c1ccc(-c2cc(C)nc([C@@H]3CC[C@]4(CCN(C)C4=O)N3)c2)cc1 [Example 210, (2S,5R)-2-[4-(4-Ethylsulfonylphenyl)-6-methyl-2-pyridyl]-7-methyl-1,7-diazaspiro[4.4]nonan-6-one hydrochloride] | 398 | –
Cc1cc(-c2cc(F)ccc2F)cc([C@H]2CC[C@@]3(CCN(C)C3=O)N2)n1 [Example 211, (2R,5S)-2-[4-(2,5-Difluorophenyl)-6-methyl-2-pyridyl]-7-methyl-1,7-diazaspiro[4.4]nonan-6-one hydrochloride] | 25.1 | 251
CCOc1ccc(F)c(-c2ccnc([C@H]3CC[C@]4(CCN(C)C4=O)N3)c2C)c1 [Example 212, (2R,5R)-2-[4-(5-Ethoxy-2-fluoro-phenyl)-3-methyl-2-pyridyl]-7-methyl-1,7-diazaspiro[4.4]nonan-6-one hydrochloride] | 5.01 | 63.1
CCOc1ccc(F)c(-c2ccnc([C@@H]3CC[C@]4(CCN(C)C4=O)N3)c2C)c1 [Example 213, (2S,5R)-2-[4-(5-Ethoxy-2-fluoro-phenyl)-3-methyl-2-pyridyl]-7-methyl-1,7-diazaspiro[4.4]nonan-6-one hydrochloride] | 6.31 | 63.1
CCOc1ccc(F)c(-c2ccnc([C@@H]3CC[C@@]4(CCN(C)C4=O)N3)c2C)c1 [Example 214, (2S,5S)-2-[4-(5-Ethoxy-2-fluoro-phenyl)-3-methyl-2-pyridyl]-7-methyl-1,7-diazaspiro[4.4]nonan-6-one hydrochloride] | 3.98 | 31.6
CCOc1ccc(F)c(-c2ccnc([C@H]3CC[C@@]4(CCN(C)C4=O)N3)c2C)c1 [Example 215, (2R,5S)-2-[4-(5-Ethoxy-2-fluoro-phenyl)-3-methyl-2-pyridyl]-7-methyl-1,7-diazaspiro[4.4]nonan-6-one hydrochloride] | 12.6 | 126
CCOc1ccc(F)c(-c2ccnc([C@@H]3CC[C@@]4(CC(C)(C)NC4=O)N3)c2)c1 [Example 216, (2S,5S)-2-[4-(5-Ethoxy-2-fluoro-phenyl)-2-pyridyl]-8,8-dimethyl-1,7-diazaspiro[4.4]nonan-6-one hydrochloride] | 5.01 | 31.6
CCOc1ccc(F)c(-c2ccnc([C@H]3CC[C@@]4(CC(C)(C)NC4=O)N3)c2)c1 [Example 217, (2R,5S)-2-[4-(5-Ethoxy-2-fluoro-phenyl)-2-pyridyl]-8,8-dimethyl-1,7-diazaspiro[4.4]nonan-6-one hydrochloride] | 3.98 | 25.1
CCOc1ccc(F)c(-c2ccnc([C@H]3CC[C@]4(CC(C)(C)NC4=O)N3)c2)c1 [Example 218, (2R,5R)-2-[4-(5-Ethoxy-2-fluoro-phenyl)-2-pyridyl]-8,8-dimethyl-1,7-diazaspiro[4.4]nonan-6-one hydrochloride] | 0.501 | 6.31
CCOc1ccc(F)c(-c2ccnc([C@@H]3CC[C@]4(CC(C)(C)NC4=O)N3)c2)c1 [Example 219, (2S,5R)-2-[4-(5-Ethoxy-2-fluoro-phenyl)-2-pyridyl]-8,8-dimethyl-1,7-diazaspiro[4.4]nonan-6-one hydrochloride] | 7.94 | 50.1
CC1(C)C[C@]2(CC[C@H](c3cc(-c4cc(O)ccc4F)ccn3)N2)C(=O)N1 [Example 220, (2R,5R)-2-[4-(2-Fluoro-5-hydroxy-phenyl)-2-pyridyl]-8,8-dimethyl-1,7-diazaspiro[4.4]nonan-6-one] | 50.1 | 200
CCOc1ccc(F)c(-c2cc([C@@H]3CC[C@]4(CCN(C)C4=O)N3)ncc2F)c1 [Example 221, (2S,5R)-2-[4-(5-Ethoxy-2-fluoro-phenyl)-5-fluoro-2-pyridyl]-7-methyl-1,7-diazaspiro[4.4]nonan-6-one hydrochloride] | 31.6 | 316
CCOc1ccc(F)c(-c2cc([C@H]3CC[C@]4(CCN(C)C4=O)N3)ncc2F)c1 [Example 222, (2R,5R)-2-[4-(5-Ethoxy-2-fluoro-phenyl)-5-fluoro-2-pyridyl]-7-methyl-1,7-diazaspiro[4.4]nonan-6-one hydrochloride] | 25.1 | 398
CCOc1ccc(F)c(-c2cc([C@H]3CC[C@@]4(CCN(C)C4=O)N3)ncc2F)c1 [Example 223, (2R,5S)-2-[4-(5-Ethoxy-2-fluoro-phenyl)-5-fluoro-2-pyridyl]-7-methyl-1,7-diazaspiro[4.4]nonan-6-one hydrochloride] | 25.1 | 158
CCOc1ccc(F)c(-c2cc([C@@H]3CC[C@@]4(CCN(C)C4=O)N3)ncc2F)c1 [Example 224, (2S,5S)-2-[4-(5-Ethoxy-2-fluoro-phenyl)-5-fluoro-2-pyridyl]-7-methyl-1,7-diazaspiro[4.4]nonan-6-one hydrochloride] | 15.8 | 100
CN1CC[C@@]2(CC[C@H](c3cc(-c4ccc(C(F)(F)F)cc4)ccn3)N2C)C1=O [Example 225, (2R,5S)-1,7-Dimethyl-2-[4-[4-(trifluoromethyl)phenyl]-2-pyridyl]-1,7-diazaspiro[4.4]nonan-6-one hydrochloride] | 25.1 | 251
Cc1cc(-c2ccc(C(F)(F)F)cc2)cc([C@@H]2CC[C@@]3(CCNC3=O)N2C)n1 [Example 226, (2S,5S)-1-Methyl-2-[6-methyl-4-[4-(trifluoromethyl)phenyl]-2-pyridyl]-1,7-diazaspiro[4.4]nonan-6-one hydrochloride] | 12.6 | 1580
Cc1cc(-c2ccc(C(F)(F)F)cc2)cc([C@H]2CC[C@]3(CCNC3=O)N2C)n1 [Example 227, (2R,5R)-1-Methyl-2-[6-methyl-4-[4-(trifluoromethyl)phenyl]-2-pyridyl]-1,7-diazaspiro[4.4]nonan-6-one hydrochloride] | 12.6 | 158
Cc1cc(-c2ccc(C(F)(F)F)cc2)cc([C@@H]2CC[C@]3(CCNC3=O)N2C)n1 [Example 228, (2S,5R)-1-Methyl-2-[6-methyl-4-[4-(trifluoromethyl)phenyl]-2-pyridyl]-1,7-diazaspiro[4.4]nonan-6-one hydrochloride] | 3.16 | 20
Cc1cc(-c2ccc(C(F)(F)F)cc2)cc([C@H]2CC[C@@]3(CCNC3=O)N2C)n1 [Example 229, (2R,5S)-1-Methyl-2-[6-methyl-4-[4-(trifluoromethyl)phenyl]-2-pyridyl]-1,7-diazaspiro[4.4]nonan-6-one hydrochloride] | 3.16 | 63.1
CN1[C@H](c2cc(-c3ccc(C(F)(F)F)cc3)ccn2)CC[C@]12CCCNC2=O [Example 230, hydrochloride] | 1.26 | 25.1
